{
  "source": "paper PMC10604720",
  "about": "“Unraveling the Mechanism of Epichaperome Modulation by Zelavespib: Biochemical Insights on Target Occupancy and Extended Residence Time at the Site of Action” (Biomedicines, 2023)",
  "key": {"[1]": {"assay": "Biodistribution / PET pharmacokinetics of [124I]-zelavespib in MDA-MB-468 tumor-bearing mice (data of ref 32, refitted to exponential decay)", "type": "in vivo, mouse", "protocol": "Iodine-124 is a ‘non-residualizing’ isotope (i.e., free iodine-124 washes out from cells), and therefore, data derived from positron emission tomography imaging of MDA-MB-468-bearing mice that were administered a tracer amount of [^124I]-PU-AD can be used to determine real-time zelavespib concentrations delivered to tumors. Because positron emission tomography provides information on radioactivity and not molar concentrations, radioactivity data from Pillarsetty et al. were transformed into tumor concentrations to calculate the time-dependent zelavespib concentrations in tumors for an administered dose of 50 mg/kg. The drug concentration (in μM) in the tumor water space, [Drugtumor], at the time t post-administration is therefore: [Drugtumor]t=Drugdose·[Atumor]t/100%·1/W·1×10^6/MW µM where Drugdose is the administered drug dose (in mg), [Atumor]t is the activity concentration (in % injected dose per milliliter, %ID/mL) of the surrogate radiotracer, W is the water space of the tissue (in mL/g), MW is the molecular weight of the drug (i.e., zelavespib), and the factor 1 × 10^6 converts the concentration to μM. For the drug zelavespib and the surrogate radiotracer […] co-injected in a ratio of ~1 to 10,000, the drug itself is essentially the only significant form of the drug–surrogate combination in the tumor. Thus, for a co-administered dose of zelavespib (zelavespibdose in mg) and a tracer amount of [^124I]-PU-AD, the drug concentration in the tumor water space (using an average water space, W = 0.8 mL/g, and the molecular weight MW = 512) is: [Zelavespibtumor]t=Zelavespibdose · [Atumor]t/100%·2.44×10^3 µM\nTo study the zelavespib–epichaperome interaction in vivo, we selected, for simplicity, an epichaperome-positive tumor model (e.g., subcutaneously xenografted MDA-MB-468 tumors in mice). Using whole-body PET imaging after the injection of ^124I-labeled zelavespib, Pillarsetty et al. reported drug presence in MDA-MB-468 tumors up to 120 h post-single dose administration (~T1/2 = 60 h). Conversely, zelavespib was no longer observed in non-disease, non-metabolizing tissues after ~8 h, clearing rapidly from plasma, paralleled by a similar rapid clearance from normal tissues (i.e., chaperone-positive but epichaperome-negative). In these tumors, a clear relationship between tumor retention, pharmacodynamic effects, and anti-tumor activity was observed, supporting the notion that zelavespib was in residence with its target over the time it resided in these tumors.\nThese values are very much in agreement with those reported for zelavespib in human patients. […] Contrasting plasma and normal tissues and organs, the distribution of zelavespib in tumors was best fitted using a bi-exponential model. […] The first phase thus reflects the clearance of systemic agent, while the second is attributable to specific tumor retention.\nFigure 1 Biodistribution of zelavespib in MDA-MB-468 tumor-bearing mice. (a) Biodistribution of [^124I]-Zelavespib in MDA-MB-468 tumors, organs, tissues, and plasma as per ref. [32]. Data are presented as means ± s.d., five mice per time point. Curves for blood, lung, heart, muscle, bone, and brain were fitted using a one-phase decay equation, and kinetics of zelavespib clearance were determined. Tumor curve was fitted to a two-phase exponential decay. k, kfast, and kslow are the rate constants. Half-life (T1/2) is computed as ln(2)/k. […] (b) Illustrative schematic showing the distinct binding kinetics of zelavespib to epichaperomes (slow off-rate) and to chaperone assemblies (fast off-rate). The tumor pharmacokinetics profile recorded in the Phase 2 interval may represent a direct reflection of the in vivo kinetics of target–drug unbinding. koff, kinetic rate constant for dissociation of an epichaperome-zelavespib assembly. Rt, retention time. […]"}, "[2]": {"design": "method as in PMID 31668946", "conditions": "whole-body PET imaging, mice; cited from earlier work"}, "[3]": {"conditions": "MDA-MB-468 tumor-bearing mice, one-phase exponential decay fit of data of ref 32"}, "[4]": {"conditions": "MDA-MB-468 tumor, bi-exponential fit, Phase 1: 0 to 8 h, data of ref 32"}, "[5]": {"conditions": "MDA-MB-468 tumor, bi-exponential fit, slow terminal clearance phase, data of ref 32"}, "[6]": {"conditions": "one-phase decay fit of data of ref 32"}},
  "data": [
    {"smiles": "CC(C)NCCCn1c(Sc2cc3c(cc2[124I])OCO3)nc2c(N)ncnc21", "note": "[[^124I]-zelavespib]", "values": [
      {"measurement": "half-life (T1/2), bone", "setting": "[1]; [3]", "result": 2.844, "unit": "h"},
      {"measurement": "half-life (T1/2), brain", "setting": "[1]; [3]", "result": 2.655, "unit": "h"},
      {"measurement": "half-life (T1/2), heart", "setting": "[1]; [3]", "result": 3.102, "unit": "h"},
      {"measurement": "half-life (T1/2), lung", "setting": "[1]; [3]", "result": 3.367, "unit": "h"},
      {"measurement": "half-life (T1/2), muscle", "setting": "[1]; [3]", "result": 5.034, "unit": "h"},
      {"measurement": "half-life (T1/2), plasma/blood", "setting": "[1]; [3]", "result": 4.380, "unit": "h"},
      {"measurement": "tumor Phase 1 T1/2", "setting": "[1]; [4]", "result": 2.876, "unit": "h"},
      {"measurement": "tumor Phase 1 rate constant k (kfast)", "setting": "[1]; [4]", "result": 0.2410, "unit": "h⁻¹"},
      {"measurement": "tumor Phase 2 T1/2", "setting": "[1]; [5]", "result": 46.80, "unit": "h"},
      {"measurement": "tumor Phase 2 rate constant k (kslow)", "setting": "[1]; [5]", "result": 0.0148, "unit": "h⁻¹"},
      {"measurement": "clearance rate constant k, blood", "setting": "[1]; [6]", "result": 0.1583, "unit": "h⁻¹"},
      {"measurement": "clearance rate constant k, bone", "setting": "[1]; [6]", "result": 0.2437, "unit": "h⁻¹"},
      {"measurement": "clearance rate constant k, brain", "setting": "[1]; [6]", "result": 0.2611, "unit": "h⁻¹"},
      {"measurement": "clearance rate constant k, heart", "setting": "[1]; [6]", "result": 0.2234, "unit": "h⁻¹"},
      {"measurement": "clearance rate constant k, lung", "setting": "[1]; [6]", "result": 0.2059, "unit": "h⁻¹"},
      {"measurement": "clearance rate constant k, muscle", "setting": "[1]; [6]", "result": 0.1377, "unit": "h⁻¹"},
      {"measurement": "T1/2 in MDA-MB-468 tumors", "setting": "[2]", "result": "~60", "unit": "h"},
      {"measurement": "drug presence in MDA-MB-468 tumors, time post-single dose administration", "setting": "[2]", "result": "up to 120 h"}
    ]}
  ]
}
